The text below walks through data of patent EP1143955B1, “A COMBINATION OF FBPase INHIBITORS AND INSULIN SENSITIZERS FOR THE TREATMENT OF DIABETES” (priority 1998, dated 2000).

Bounds are passed on as bounds.

The target of one data set is rat liver FBPase. The data set is described as follows: Inhibition of rat liver FBPase (Example B). The format is biochemical. To be noted: assayed as for human liver FBPase.
For a further data set, the target named is Mouse liver FBPase. The data set is described as follows: Inhibition of mouse liver FBPase (Example B). The format is biochemical. Conditions: partially purified mouse liver FBPase, assayed as for human liver FBPase.
In a further data set the target is human liver FBPase. Briefly: Inhibition of Human Liver FBPase (Example A). Conditions: […] fructose 1,6-bisphosphate, 37°C. The format is biochemical.
The subject of data set [1] is Rat Hepatocytes. Briefly: Inhibition of glucose production and elevation of fructose-1,6-bisphosphate levels in rat hepatocytes (Example D). The format is cell-based. Conditions: isolated rat hepatocytes. The procedure: Hepatocytes were prepared from fed Sprague-Dawley rats (250-300 g) according to the procedure of Berry and Friend (Berry, M.N., Friend, D.S., 1969, J. Cell. Biol. 43, 506-520) as modified by Groen (Groen, A.K., Sips, H.J., Vervoom, R.C., Tager, J.M. , 1982, Eur. J. Biochem. 122, 87-93). Hepatocytes (75 mg wet weight/ml) were incubated in 1 ml Krebs-bicarbonate buffer containing 10 mM Lactate, 1 mM pyruvate, 1 mg/ml BSA, and test compound concentrations from 0 to 500 µM. Incubations were carried out in a 95% oxygen, 5% carbon dioxide atmosphere in closed, 50-ml Falcon tubes submerged in a rapidly shaking water bath (37°C). After 1 hour, an aliquot (0.25 ml) was removed, transferred to an Eppendorf tube and centrifuged. 50 µl of supernatant was then assayed for glucose content using a Sigma Glucose Oxidase kit as per the manufacturer's instructions.
Rat hepatocytes were isolated and incubated as described in Example C. Cell extracts, were analyzed for glucose content as described in Example C, and also for fructose 1,6-bisphosphate. Fructose 1,6-bisphosphate was assayed spectrophotometrically by coupling its enzymatic conversion to glycerol 3-phosphate to the oxidation of NADH, which was monitored at 340 nm. […] After a 30 minute preincubation at 37°C, 1 unit/ml of aldolase was added and the change in absorbance measured until a stable value was obtained. […]

The next data set relates to Normal Fasted Rats. Briefly: Glucose lowering after intraperitoneal administration to normal fasted rats (Example F). The format is in vivo. To be noted: 18-hour fasted Sprague-Dawley rats, one hour post injection. The procedure:
Sprague-Dawley rats (250-300 g) were fasted for 18 hours and then dosed intraperitoneally either with saline or FBPase inhibitor. The vehicle used for drug administration was 10 mM bicarbonate. One hour post injection, rats were anesthetized with halothane, and liver and blood samples were taken and processed as described in Example E. The neutralized liver extracts were analyzed for FBPase inhibitor content by HPLC. A reverse phase YMC ODS AQ column ([…]) was used and eluted with a gradient from 10 mM sodium phosphate pH 5.5 to 75% acetonitrile. Absorbance was monitored at 310 nm. Glucose was measured in the blood sample as described in Example C. Plasma was prepared by centrifugation and extracted by addition of methanol to 60% (v/v). The methanolic extract was clarified by centrifugation and filtration and then analyzed by HPLC as described above.

A short description of data set [2]: Oral bioavailability determination by the urinary excretion method in the rat (Example G). The format is in vivo, Sprague Dawley rats. The protocol: The oral bioavailability of prodrugs and parent compounds was determined by the urinary excretion method in the rat. Prodrugs were dissolved in 10% ethanol/90% polyethylene glycol (mw 400) and administered by oral gavage at doses of 10 to 40 mg/kg parent compound equivalents to 6-hour fasted, Sprague Dawley rats (220-240 g). Parent compounds were typically dissolved in deionized water, neutralized with sodium hydroxide, and then administered orally at 10-40 mg/kg or intravenously at ~10 mg/kg. The rats were subsequently placed in metabolic cages and urine was collected for 24 hours. The quantity of parent compound excreted into urine was determined by HPLC analysis as described in Example F. Analysis was performed as described in Example F. For prodrugs, the percentage oral bioavailability was estimated by comparison of the recovery in urine of the parent compound generated from the prodrug administered orally, to that recovered in urine following intravenous administration of the corresponding parent compound. For parent compounds, the percentage oral bioavailability was estimated by comparison of the recovery in urine of the parent compound when administered orally to that recovered when administered intravenously.

Data set [3] concerns ZDF rat. Briefly: Combination treatment in the ZDF rat - plasma triglycerides (Example O). The format is in vivo, Zucker Diabetic Fatty (ZDF) rat. Conditions: for Plasma Triglycerides, mg/dl (Mean ± SEM): final day of treatment. From the text: Results are considered significant with p<0.05.
The subject of data set [4] is ZDF rat. Briefly: Combination treatment with Troglitazone and Compound G or Compound J in the ZDF rat - blood glucose (Example N). The format is in vivo, Zucker Diabetic Fatty (ZDF) rat. To be noted: for Blood Glucose, mg/dl Day 0: Day 0 (baseline); for Blood Glucose, mg/dl Day 21: Compound J 0.4% food admixture for 21 days.
Experimental: (§1) At 11 weeks of age, animals with blood glucose >500 mg/dl were selected and divided into 4 treatment groups (n=8/group). […] Blood glucose levels were measured in tail vein samples by means of a HemoCue glucose analyzer (HemoCue Inc., Mission Viejo, CA). Values are expressed as the mean plus or minus the standard error of the mean. Differences between groups were evaluated by analysis of variance with the Tukey-Kramer post hoc test.
The test system of data set [5] is ZDF rat. The data set is described as follows: Combination treatment in the ZDF rat - blood lactate (Example Q). Conditions: in vivo. More on the design: species or system Zucker Diabetic Fatty (ZDF) rat. From the text: Blood samples were taken from the tail vein on days 0, 3, 7, 10 and 14 of the Troglitazone-Compound G combination study and on days 0,7,14, and 21 of the Troglitazone-Compound J combination study (study protocols are described in Example N).

For data set [6], the system named is Rat Hepatocytes. Briefly: Inhibition of Gluconeogenesis in Rat Hepatocytes (Example C). The format is cell-based. To be noted: glucose production from 10 mM lactate, 1 mM pyruvate, 1 hour, hepatocytes from fed Sprague-Dawley rats.
Experimental: Hepatocytes (75 mg wet weight/ml) were incubated in 1 ml Krebs-bicarbonate buffer containing 10 mM Lactate, 1 mM pyruvate, 1 mg/ml BSA, and test compound concentrations from 0 to 500 µM. […] After 1 hour, an aliquot (0.25 ml) was removed, transferred to an Eppendorf tube and centrifuged. 50 µl of supernatant was then assayed for glucose content using a Sigma Glucose Oxidase kit as per the manufacturer's instructions.
Data set [7] relates to ZDF rat. Briefly: Combination treatment with Rosiglitazone and Compound G in the ZDF rat - blood glucose (Example R). The format is in vivo, Zucker Diabetic Fatty (ZDF) rat. Conditions: Rosiglitazone 0.0045%, Compound G 0.2% food admixture, 25 days.
Experimental: as §1
The subject of a further data set is type 2 diabetics. To be noted: most common side-effect; cited from earlier work.
Data set [8] concerns db/db mouse. Briefly: Combination treatment with Troglitazone and Compound A in the db/db mouse - blood glucose (Example T). The format is in vivo, C57BL/KsJ-db/db mice. To be noted: for Blood glucose, mg/dl (8 am day 4): fed. From the text:
Male C57BL/KsJ-db/db mice were obtained from Jackson Laboratories (Bar Harbor, Maine) at 9 weeks of age. […] Group 1 (controls) received powdered Purina 5008 chow alone. […] This dose is reported to elicit the maximal hypoglycemic effect of Troglitazone in this model (Fujiwara et al 1995). […] Results are considered significant with p<0.05.

The subject of data set [9] is db/db mouse. Briefly: Combination treatment with Troglitazone and Compound G in the db/db mouse - blood glucose (Example S). The format is in vivo. Conditions: db/db mice, Troglitazone 0.1%, mean ± SEM. From the text:
Treatment was for 18 days. […] Results are considered significant with p<0.05.

In data set [10] the test system is ZDF rat. The data set is described as follows: Combination treatment in the ZDF rat - plasma insulin (Example P). The format is in vivo, Zucker Diabetic Fatty (ZDF) rat. To be noted: Troglitazone-Compound G study, final day of treatment. The procedure: Plasma was prepared by centrifugation and insulin levels then measured by means of an enzyme-linked immunoassay kit according to the instructions of the manufacturer (Amersham Life Sciences). […] Results are considered significant with p<0.05.

[11] abbreviates: Troglitazone-Compound J study, Troglitazone 0.2%, Compound J 0.4% food admixture, mean ± SEM.
Setting [12] is: Troglitazone-Compound J study, Troglitazone 0.2%, mean ± SEM.

Experimental for Mouse liver FBPase: (§2) Mouse liver FBPase was obtained by homogenizing freshly isolated mouse liver in 100 mM Tris-HCl buffer, pH 7.4, containing 1 mM EGTA, and 10% glycerol. […] This fraction was redissolved in the homogenization buffer and desalted on a PD-10 gel filtration column (Biorad) eluted with same. This partially purified fraction was used for enzyme assays.
Experimental for rat liver FBPase: as §2

On to `Nc1ncnc2c1ncn2[C@@H]1O[C@H](COP(=O)(O)O)[C@@H](O)[C@H]1O` [AMP], for which the IC50 at rat liver FBPase was found to be 25000 nM; against Mouse liver FBPase it was 15000 nM; on human liver FBPase it was 1300 nM.

In the case of `CCc1cc(F)c(N)c2nc(-c3ccc(P(=O)(O)O)o3)n(CC(C)C)c12` [Compound E], the “intracellular fructose 1,6-bisphosphate” value with Rat Hepatocytes [1] is given as “dose-dependent elevation of intracellular fructose 1,6-bisphosphate”. Besides, in the data set with Normal Fasted Rats, the “Glucose Lowering, %” value amounted to 44.4%.

For `CSc1nc(-c2ccc(P(=O)(O)O)o2)c(CC(C)C)s1` [Compound H, 2-Methylthio-5-isobutyl-4-[2-(5-phosphono)furanyl]thiazole], the IC50 on rat liver FBPase stood at 175 nM. Besides, the “Oral bioavailability, %” value in [2] (estimated, urinary excretion of parent compound over 24 hours, oral 10-40 mg/kg vs intravenous ~10 mg/kg, 6-hour fasted rats) is listed as 4%.

In the case of `CCOC(=O)[C@H](C)NP(=O)(N[C@@H](C)C(=O)OCC)c1ccc(-c2nc(N)sc2CC(C)C)o1` [Compound J, 2-Amino-5-isobutyl-4-{2-[5-(N,N'-bis((S)-1-ethoxycarbonyl)ethyl)phosphonamido]furanyl}thiazole], the “Plasma Triglycerides, mg/dl (Mean ± SEM)” value in the data set with ZDF rat [3] (Troglitazone-Compound J study) is 759 ± 76 mg/dL. Also, the “elevation of plasma triglycerides” value with ZDF rat [3] (monotherapy vs control, ZDF rat) is roughly 2 fold. The “Blood Glucose, mg/dl Day 0” value in the data set on ZDF rat [4] (setting [11]) amounted to 674 ± 20 mg/dL. Also, in the data set on ZDF rat [4] (setting [12]), the “Blood Glucose, mg/dl Day 21” value was determined as 452 ± 40 mg/dL. For the same compound, the “blood glucose lowering in pilot studies (dose selection)” value in the data set with ZDF rat [4] (ZDF rat, food admixture, pilot studies) is “a trend (not significant) towards more pronounced blood glucose lowering at 0.4% than at 0.2%”. In the data set with ZDF rat [5], the “blood lactate typically elevated over baseline” value is ~ 2 fold and the “maximal blood lactate elevations over baseline” value turned out to be 3 fold. Besides, the “Oral bioavailability, %” value in data set [2] (rat, in vivo, po, 24 h) stood at 21%.

In turn, `CC(C)Cc1sc(N)nc1-c1ccc(P(=O)(N[C@@H](C)C(=O)OCc2ccccc2)N[C@@H](C)C(=O)OCc2ccccc2)o1` [Compound K, 2-Amino-5-isobutyl-4-[2-(5-N,N-bis(L-alanine acid dibenzyl ester)phosphonoamido)furanyl]thiazole] showed a half-inhibitory concentration (IC50) with Rat Hepatocytes [6] of 2100 nM. This lies in the single-digit micromolar range.

With `CN(CCOc1ccc(CC2SC(=O)NC2=O)cc1)c1ccccn1` (centres unmarked) [Rosiglitazone], in the data set on ZDF rat [7], the “Responders (rats whose blood glucose levels were lower on day 25 than on day 0)” value is recorded as 6/10.

For `Cc1c(C)c2c(c(C)c1O)CCC(C)(COc1ccc(CC3SC(=O)NC3=O)cc1)O2` (centres unmarked) [Troglitazone], the “elevation of liver enzymes (hepatotoxicity)” value with type 2 diabetics was 1 % of patients. In the data set on db/db mouse [8] (6 hours post second dose of Compound A 250 mg/kg (Group 3) or vehicle (Group 2), food withheld), the “Blood glucose, mg/dl 2 pm, day 7” value amounted to 195 ± 12.1 mg/dL. For the same compound, the “Blood glucose, mg/dl (8 am day 4)” value with db/db mouse [8] (Group 2, Troglitazone 0.1% admixture) was found to be 240 ± 21.3 mg/dL; in the data set on db/db mouse [8] (Group 3, Troglitazone 0.1% admixture, before the first dose of Compound A) it was 237.5 ± 18.5 mg/dL. The “Blood glucose, mg/dl (5 pm day 4)” value with db/db mouse [8] (nine hours after single oral dose of Compound A 250 mg/kg (Group 3) or vehicle (Group 2), Troglitazone 0.1% admixture) stood at 232.5 ± 17 mg/dL. Besides, the “Plasma Triglycerides, mg/dl (Mean ± SEM)” value was determined as 131 ± 16 mg/dL in the data set on ZDF rat [3] (Troglitazone-Compound G study) and 249 ± 60 mg/dL in the data set with ZDF rat [3] (Troglitazone-Compound J study). Further, the “Blood Glucose, mg/dl Day 0” value in the data set with ZDF rat [4] (Troglitazone-Compound G study, drugs as 0.2% food admixtures, mean ± SEM, n=8/group) worked out at 655 ± 33 mg/dL; in the data set with ZDF rat [4] (setting [11]), 669 ± 23 mg/dL; in the data set on db/db mouse [9] (Day 0 (baseline), Compound G 0.4% food admixture), 710 ± 44 mg/dL. Moreover, in the data set on ZDF rat [4] (Troglitazone-Compound G study, drugs as 0.2% food admixtures for 15 days, mean ± SEM), the “Blood Glucose, mg/dl Day 14” value was 431 ± 73 mg/dL. The “Blood Glucose, mg/dl Day 21” value in the data set on ZDF rat [4] (setting [12]) is 514 ± 135 mg/dL. Also, the “Blood Glucose, mg/dl Day 18” value in the data set on db/db mouse [9] (Compound G 0.4% food admixture for 18 days) is 509 ± 70 mg/dL. The half-maximal inhibitory concentration (IC50) in the data set on Rat Hepatocytes [6] (Rattus norvegicus, Hepatocyte) is greater than 100000 nM. Further, the “Plasma Insulin, ng/ml (Mean ± SEM)” value in the data set with ZDF rat [10] came to 3.61 ± 1.03 ng/mL.

The term IC50 denotes the point on the concentration scale where inhibition reaches its midpoint. Low values mean inhibition by little substance, high ones a need for much substance.
